Source: patent US11104648B2, “Pyrazole derivative” (Zhejiang Research Institute of Chemical Industry Co., Ltd., priority 2018, dated 2021)
Read-outs that look alike come from different tables or passages of the source.

How the values were obtained:
Format in all cases: in vivo
[1] = tested on: Tetranychus cinnabarinus Nymphs; experiment: Activity assay of Tetranychus cinnabarinus nymphs (spray on broad bean leaves)
Protocol: According to the solubility of the test compound, the crude drug was dissolved in N, N-dimethylformamide, and then prepared into a test solution of the desired concentration with 1‰ Tween 80 aqueous solution. The content of N,N-dimethylformamide in the solution should not exceed 10%.
The broad bean leaves with petioles were cut and inserted into a small bottle with water. A certain number of brightly colored, active female adult mites were placed, 24h later, adult mites were removed, and leaves with insufficient eggs were removed. When eggs were hatched and grew into nymphs, spray treatment was performed. The experiment was repeated three times, and a blank control was set, and placed to an observation room (26±2° C., humidity 70%˜80%, 16h light per day) for culture. 48 h later, the results were investigated. The nymphs were gently touched during investigation, and if no response, they were regarded as deaths.

[2] = tested on: adult Tetranychus cinnabarinus; experiment: Activity assay of adult Tetranychus cinnabarinus (whole-plant spray on bean seedlings); conditions: 48 h, read-out: adult mite-killing activity
Protocol: According to the solubility of the test compound, the crude drug was dissolved in N, N-dimethlfornamide, and then prepared into a test solution of the desired concentration with 1‰ Tween 80 aqueous solution. The content of N,N-dimethylformamide in the solution should not exceed 10%.
Two euphylla bean seedlings were taken, after inoculated with adult Tetranychus cinnabarinus and the base number was investigated, whole plants were sprayed with a hand-held sprayer. The experiment was repeated three times for each treatment, after treatment, placed in a standard observation room after treatment, to investigate the survival number of mites in 48 hand calculate the death rate.

[3] = tested on: Eggs of Tetranychus Cinnabarinus; experiment: Activity assay of eggs of Tetranychus cinnabarinus (spray method, ovicidal); conditions: Tetranychus cinnabarinus, read-out: ovicidal activity
Protocol: According to the solubility of the test compound, the crude drug was dissolved in N N-dimethylformamide, and then prepared into a test solution of the desired concentration with 1‰ Tween 80 aqueous solution. The content of N. N-dimethylformamide in the solution should not exceed 10%.
Spray method. The broad bean leaves with petioles were cut and inserted into a bottle with water. A certain number of female mites were placed, 24h later, adult mites were removed, and spray treatment was performed in 24 h. The experiment was repeated three times, and a blank control was set, and placed to an observation room (26±2° C., humidity 70%˜80%, 16h light per day) for culture. When the blank control group was incubated, the results were investigated. The non-incubated ones were used as death for investigation.

[4] = 48 h, concentration 2.5 mg/L, read-out: nymph-killing activity
[5] = concentration 5 mg/L, spray, non-incubated eggs counted as dead

Cc1cc(/C(OC(C)OC(=O)C2CC2)=C(\C#N)c2ccc(C(C)(C)C)cc2)n(C)n1 (stereo not drawn) [Compound 34]
pest or weed control at 2.5 µg/mL [1, 4]: ≥ 95%
pest or weed control at 2.5 µg/mL ([2]; concentration 2.5 mg/L): ≥ 90%
pest or weed control at 5 µg/mL [3, 5]: ≥ 90%

CSCC(=O)OC(C)O/C(=C(/C#N)c1ccc(C(C)(C)C)cc1)c1cc(C)nn1C (stereo not drawn) [Compound 35]
pest or weed control at 2.5 µg/mL [1, 4]: ≥ 95%
pest or weed control at 2.5 µg/mL ([2]; concentration 2.5 mg/L): ≥ 90%
pest or weed control at 5 µg/mL [3, 5]: ≥ 90%

Cc1cc(/C(OC(C)OC(=O)C2CCCCC2)=C(\C#N)c2ccc(C(C)(C)C)cc2)n(C)n1 (stereo not drawn) [Compound 36]
pest or weed control at 2.5 µg/mL [1, 4]: ≥ 95%
pest or weed control at 2.5 µg/mL ([2]; concentration 2.5 mg/L): ≥ 90%
pest or weed control at 5 µg/mL [3, 5]: ≥ 90%

Cc1cc(/C(OC(C)OC(=O)CF)=C(\C#N)c2ccc(C(C)(C)C)cc2)n(C)n1 (stereo not drawn) [Compound 37]
pest or weed control at 2.5 µg/mL ([1]; 48 h, read-out: nymph-killing activity): ≥ 95%
pest or weed control at 2.5 µg/mL [2]: ≥ 90%
pest or weed control at 5 µg/mL [3]: ≥ 90%

Cc1cc(/C(OC(C)OC(=O)C(F)(F)F)=C(\C#N)c2ccc(C(C)(C)C)cc2)n(C)n1 (stereo not drawn) [Compound 38]
pest or weed control at 2.5 µg/mL [1, 4]: ≥ 95%
pest or weed control at 2.5 µg/mL ([2]; concentration 2.5 mg/L): ≥ 90%
pest or weed control at 5 µg/mL [3, 5]: ≥ 90%

Cc1cc(/C(OC(C)OC(=O)c2ccccc2)=C(\C#N)c2ccc(C(C)(C)C)cc2)n(C)n1 (stereo not drawn) [Compound 39]
pest or weed control at 2.5 µg/mL [1, 4]: ≥ 95%
pest or weed control at 2.5 µg/mL ([2]; concentration 2.5 mg/L): ≥ 90%
pest or weed control at 5 µg/mL [3, 5]: ≥ 90%

Cc1cc(/C(OC(C)OC(=O)Cc2ccccc2)=C(\C#N)c2ccc(C(C)(C)C)cc2)n(C)n1 (stereo not drawn) [Compound 40]
pest or weed control at 2.5 µg/mL ([1]; concentration 2.5 mg/L, 48 h, read-out: nymph-killing activity): ≥ 95%
pest or weed control at 2.5 µg/mL ([2]; concentration 2.5 mg/L): ≥ 90%
pest or weed control at 5 µg/mL [3, 5]: ≥ 90%

CCC(C)(C)C(=O)OC(C)O/C(=C(/C#N)c1ccc(C(C)(C)C)cc1)c1cc(C)nn1C (stereo not drawn) [Compound 41]
pest or weed control at 2.5 µg/mL [1, 4]: ≥ 95%
pest or weed control at 2.5 µg/mL ([2]; concentration 2.5 mg/L): ≥ 90%
pest or weed control at 5 µg/mL [3, 5]: ≥ 90%

C=CC(=O)OC(C)O/C(=C(/C#N)c1ccc(C(C)(C)C)cc1)c1cc(C)nn1C (stereo not drawn) [Compound 42]
pest or weed control at 2.5 µg/mL [1, 4]: ≥ 95%
pest or weed control at 2.5 µg/mL ([2]; concentration 2.5 mg/L): ≥ 90%
pest or weed control at 5 µg/mL [3, 5]: ≥ 90%

CC(=O)OCO/C(=C(/C#N)c1ccc(C(C)(C)C)cc1)c1c(Cl)c(C)nn1C [Compound 76]
pest or weed control at 2.5 µg/mL [1, 4]: ≥ 95%
pest or weed control at 2.5 µg/mL ([2]; concentration 2.5 mg/L): ≥ 90%
pest or weed control at 5 µg/mL [3, 5]: ≥ 90%

CCC(=O)OCO/C(=C(/C#N)c1ccc(C(C)(C)C)cc1)c1c(Cl)c(C)nn1C [Compound 77]
pest or weed control at 2.5 µg/mL [1, 4]: ≥ 95%
pest or weed control at 2.5 µg/mL ([2]; concentration 2.5 mg/L): ≥ 90%
pest or weed control at 5 µg/mL [3, 5]: ≥ 90%

CCCC(=O)OCO/C(=C(/C#N)c1ccc(C(C)(C)C)cc1)c1c(Cl)c(C)nn1C [Compound 78]
pest or weed control at 2.5 µg/mL [1, 4]: ≥ 95%
pest or weed control at 2.5 µg/mL ([2]; concentration 2.5 mg/L): ≥ 90%
pest or weed control at 5 µg/mL [3, 5]: ≥ 90%

Cc1nn(C)c(/C(OCOC(=O)C(C)C)=C(\C#N)c2ccc(C(C)(C)C)cc2)c1Cl [Compound 79]
pest or weed control at 2.5 µg/mL [1, 4]: ≥ 95%
pest or weed control at 2.5 µg/mL ([2]; concentration 2.5 mg/L): ≥ 90%
pest or weed control at 5 µg/mL [3, 5]: ≥ 90%

Cc1nn(C)c(/C(OCOC(=O)C(C)(C)C)=C(\C#N)c2ccc(C(C)(C)C)cc2)c1Cl [Compound 80]
pest or weed control at 2.5 µg/mL [1, 4]: ≥ 95%
pest or weed control at 2.5 µg/mL ([2]; concentration 2.5 mg/L): ≥ 90%
pest or weed control at 5 µg/mL [3, 5]: ≥ 90%

CCCCC(=O)OCO/C(=C(/C#N)c1ccc(C(C)(C)C)cc1)c1c(Cl)c(C)nn1C [Compound 81]
pest or weed control at 2.5 µg/mL [1, 4]: ≥ 95%
pest or weed control at 2.5 µg/mL ([2]; concentration 2.5 mg/L): ≥ 90%
pest or weed control at 5 µg/mL [3, 5]: ≥ 90%

Cc1nn(C)c(/C(OCOC(=O)CC(C)C)=C(\C#N)c2ccc(C(C)(C)C)cc2)c1Cl [Compound 82]
pest or weed control at 2.5 µg/mL [1, 4]: ≥ 95%
pest or weed control at 2.5 µg/mL ([2]; concentration 2.5 mg/L): ≥ 90%
pest or weed control at 5 µg/mL [3, 5]: ≥ 90%

COCC(=O)OCO/C(=C(/C#N)c1ccc(C(C)(C)C)cc1)c1c(Cl)c(C)nn1C [Compound 83]
pest or weed control at 2.5 µg/mL [1, 4]: ≥ 95%
pest or weed control at 2.5 µg/mL ([2]; concentration 2.5 mg/L): ≥ 90%
pest or weed control at 5 µg/mL [3, 5]: ≥ 90%

Cc1nn(C)c(/C(OCOC(=O)C2CC2)=C(\C#N)c2ccc(C(C)(C)C)cc2)c1Cl [Compound 84]
pest or weed control at 2.5 µg/mL [1, 4]: ≥ 95%
pest or weed control at 2.5 µg/mL ([2]; concentration 2.5 mg/L): ≥ 90%
pest or weed control at 5 µg/mL [3, 5]: ≥ 90%
